From patent US11904049B2, “Pharmaceutical formulation” (priority 2017, dated 2024)
Counter-ions that a name gives are not always drawn.

Legend:
in vivo = conditions: male, beagle, dog, plasma, intravenous, 0.143 mg/kg
Experimental: The three beagle dogs used in the experiment were male, non-naïve beagle dogs, weighing 12.7-13.9 kg, 37-39.5 months old, from CEDS (France) at the first session.
At each test session, serial blood samples were collected in all dogs at 12 time points: pre-dose, and then 0.083 (5 min), 0.167 (10 min), 0.33 (20 min), 0.5 (30 min), 1, 2, 3, 4, 5, 6 and 8 hours after the initial application, giving therefore a total of 180 blood samples. At each time-point, a blood sample of 2 mL was collected by puncture in a jugual vein in conscious animals using an identified vacuum tube containing K2-EDTA (Greiner Bio-One ref #454047) for plasma preparation. Immediately after collection, the blood sample was gently agitated and stored on ice until centrifugation (within 30 minutes of sampling). The blood samples were centrifuged at 4° C., at 1500 g, for 10 minutes. The entire resultant plasma was immediately transferred into an identified 1 mL polypropylene screw capped cryotube (1 aliquot of at least 800 μL of plasma) maintained on ice. The tubes were stored upright at approximately −20° C. until shipment to the test site, ABS Laboratories (BioPark, Broadwater Road, Welwyn Garden City, Herts AL7 3AX), for analysis by HPLC-MS (high performance liquid chromatography-mass spectrometry) using a standard separation protocol.
Individual concentration (C) versus time (T) curves were analysed for standard pharmacokinetic (PK) parameters using non-compartmental analysis using the SimBiology package of MatLab, Version 2015b.

[1] = cited from earlier work

| SMILES | AUC(0-t) (in vivo) [ng·h/mL] | Cmax (in vivo) [ng/mL] | Tmax (in vivo) [min] | concentration at 5 min (in vivo) [ng/mL] | strongest basic pKa [1] | pKa ([1]; naloxone as a base) |
| --- | --- | --- | --- | --- | --- | --- |
| C=CCN1CC[C@]23c4c5ccc(O)c4O[C@H]2C(=O)CC[C@@]3(O)[C@H]1C5 [Intravenous, Naloxone HCl] | 20.8 | 29.4 | 6.7 | 28.2 |  |  |
| C=CCN1CC[C@]23c4c5ccc(O)c4O[C@H]2C(=O)CC[C@@]3(O)[C@H]1C5 [naloxone] |  |  |  |  | 10.07 | 7.84 |
